Reference: patent US20220144812A1, “QUINOLINE DERIVATIVES AND THEIR USE FOR THE TREATMENT OF CANCER” (Epizyme, Inc., priority 2019, published 2022)
Read-outs that look alike come from different tables or passages of the source.

Key:
647V cells = assay: High throughput proliferation (HTP) assay; type: cell-based; settings: high throughput proliferation, read-out: CREBBP HTP IC50
Outline: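 Exponentially growing 647V cells in DMEM with 15% FBS were treated in triplicate with increasing compound concentrations at 37° C, 5% CO2. Viable cell number was read by CellTiter-Glo luminescence on day 7; IC50 in micromolar.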

CREBBP (1084-1701) = target: T1, CREBBP (1084-1701) (Homo sapiens, UniProt Q92793); assay: Biochemical assay for CREBBP (1084-1701), SAMDI; settings: SAMDI, read-out: CREBBP Biochemistry IC50
T1 construct: measured in the following biochemical assay using CREBBP (1084-1701); purchased
Outline: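 CREBBP (1084-1701) preincubated with compound 30 min at RT, then substrate mix (biotin-H3 11-25 K14R/K23R peptide, acetyl-CoA) added for 30 min at RT. Reaction stopped with formic acid, neutralised with sodium bicarbonate. Peptide acetylation read by SAMDI mass spectrometry to derive IC50.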

[1] = tested on: H3K18Ac in HB-CLS-2 cells; assay: H3K18AC in-cell western (ICW) assay; type: cell-based; settings: H3K18Ac in-cell western; read-out: CREBBP ICW IC50
Outline: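 HB-CLS-2 cells seeded 16–24 hours before 2 hr compound treatment at 37° C, 5% CO2, then methanol-fixed. H3K18Ac detected with rabbit monoclonal primary (overnight, 4° C) and 800CW anti-rabbit secondary; DRAQ5 stained DNA. Plates imaged at 700 and 800 nm for integrated intensity; IC50 in μM.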

EP300 (P300(1048-1664)) = target: T2, EP300 (P300(1048-1664)) (Homo sapiens, UniProt Q09472); assay: Biochemical assay for EP300, SAMDI; settings: EP300, SAMDI; read-out: EP300 Biochemistry IC50
T2 construct: P300(1048-1664)
T2 sequence (Q09472 1048-1664): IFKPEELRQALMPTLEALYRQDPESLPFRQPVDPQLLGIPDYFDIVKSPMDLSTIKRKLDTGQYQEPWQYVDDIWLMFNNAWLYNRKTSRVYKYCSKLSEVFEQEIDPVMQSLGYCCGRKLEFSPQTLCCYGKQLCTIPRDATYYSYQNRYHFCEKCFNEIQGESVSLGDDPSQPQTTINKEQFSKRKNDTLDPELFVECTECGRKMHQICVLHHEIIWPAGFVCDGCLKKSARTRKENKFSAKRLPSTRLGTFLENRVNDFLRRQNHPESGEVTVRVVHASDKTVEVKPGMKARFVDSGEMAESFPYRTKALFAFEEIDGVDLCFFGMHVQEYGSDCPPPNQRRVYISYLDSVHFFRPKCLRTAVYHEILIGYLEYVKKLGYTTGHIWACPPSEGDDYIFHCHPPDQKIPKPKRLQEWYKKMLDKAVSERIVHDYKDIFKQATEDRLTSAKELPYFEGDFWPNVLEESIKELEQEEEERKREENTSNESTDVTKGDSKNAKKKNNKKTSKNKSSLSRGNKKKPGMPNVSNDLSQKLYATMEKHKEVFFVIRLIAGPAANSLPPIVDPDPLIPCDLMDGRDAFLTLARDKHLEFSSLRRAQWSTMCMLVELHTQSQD
From the text: The following example describes materials and methods relating to a biochemical assay for EP300. IC50 values (micromolar (μM)) are summarized in Table 1, Table 2, and Table 3 under the column labeled: “EP300 Biochemistry IC50 (micromolar).”

T1 sequence (Q92793 1084-1701): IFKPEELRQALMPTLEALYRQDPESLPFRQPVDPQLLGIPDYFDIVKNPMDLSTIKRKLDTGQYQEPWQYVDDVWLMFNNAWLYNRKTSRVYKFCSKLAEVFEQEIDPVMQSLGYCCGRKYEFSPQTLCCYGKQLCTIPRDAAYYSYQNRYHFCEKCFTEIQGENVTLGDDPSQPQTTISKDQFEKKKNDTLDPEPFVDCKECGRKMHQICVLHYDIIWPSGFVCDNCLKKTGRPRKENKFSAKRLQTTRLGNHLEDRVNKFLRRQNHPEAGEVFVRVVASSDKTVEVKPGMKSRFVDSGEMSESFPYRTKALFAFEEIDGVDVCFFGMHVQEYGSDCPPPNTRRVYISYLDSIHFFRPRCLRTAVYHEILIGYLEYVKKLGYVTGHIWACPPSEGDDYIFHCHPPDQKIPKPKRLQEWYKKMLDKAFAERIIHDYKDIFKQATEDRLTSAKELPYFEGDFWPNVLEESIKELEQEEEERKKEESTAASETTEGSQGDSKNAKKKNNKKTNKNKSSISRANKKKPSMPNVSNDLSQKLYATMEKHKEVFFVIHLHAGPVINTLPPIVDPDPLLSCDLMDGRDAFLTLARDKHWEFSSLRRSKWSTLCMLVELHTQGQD

IC50 (CREBBP (1084-1701)) [µM] | IC50 [1] [µM] | IC50 (EP300 (P300(1048-1664))) [µM] | SMILES | IC50 (647V cells; Homo sapiens, 647-V) [µM] | IC50 (647V cells) [µM]
0.37 | 3.9 | 1.4 | CCn1ncc(CN(C)C(=O)c2nc(-c3cc(Cl)cc(CN4CCNCC4)c3)nc3ccc(Cl)cc23)c1C [Compound 124] | 4.1 | –
6.3 | 4 | 3.5 | CCn1ncc(CN(C)C(=O)c2nc(-c3cn[nH]c3)nc3ccc(Cl)cc23)c1C [Compound 125] | 4.1 | –
12 | 4.4 | 15 | CCn1ncc(CN(C)C(=O)c2nc(-c3ccc(OCCCNC(=O)OC(C)(C)C)c(OC)c3)nc3ccc(Cl)cc23)c1C [Compound 127] | 3.5 | –
0.35 | 4.5 | 0.8 | CCn1ncc(CN(C)C(=O)c2nc(-c3cc(Cl)cc(OCCCNC)c3)nc3ccc(Cl)cc23)c1C [Compound 128] | 1.9 | –
7.4 | 4.6 | 1.4 | CCn1ncc(CN(C)C(=O)c2cc(-n3cc(C)cn3)nc3ccc(Cl)cc23)c1C [Compound 129] | 8.3 | –
5.5 | 4.7 | 2.6 | CCn1ncc(CN(C)C(=O)c2nc(-c3cccc(N)n3)nc3ccc(Cl)cc23)c1C [Compound 131] | 7.5 | –
0.1 | 4.9 | 0.47 | CCn1ncc(CN(C)C(=O)c2nc(-c3ccc4[nH]nnc4c3)nc3ccc(Cl)cc23)c1C [Compound 133] | 5.9 | –
7.5 | 5.1 | 7.1 | CCn1ncc(CN(C)C(=O)c2nc(-c3ccnc(NC(C)=O)c3)nc3ccc(Cl)cc23)c1C [Compound 135] | 6.7 | –
8.3 | 5.3 | 7.8 | CCn1ncc(CN(C)C(=O)c2nc(-c3ccc(OCCC(=O)NC)c(OC)c3)nc3ccc(Cl)cc23)c1C [Compound 137] | 4.7 | –
5.4 | 8.4 | 8.9 | CCn1ncc(CN(C)C(=O)c2nc(-c3cn(CCNC)nc3C)nc3ccc(Cl)cc23)c1C [Compound 144] | 3.3 | –
4 | 6.5 | 2.3 | CCn1ncc(CN(C)C(=O)c2cc(-c3cnc(CN(C)C)[nH]3)nc3ccc(Cl)cc23)c1C [Compound 146] | 10 | –
7.5 | 7.2 | 11 | CCn1ncc(CN(C)C(=O)c2nc(-c3ccc(OCCN(C)C(=O)OC(C)(C)C)c(OC)c3)nc3ccc(Cl)cc23)c1C [Compound 148] | 3.9 | –
14 | 7.8 | 6.7 | CCn1ncc(CN(C)C(=O)c2cc(-c3cnc(CNC)[nH]3)nc3ccc(Cl)cc23)c1C [Compound 149] | 9.2 | –
2.2 | 8.8 | 2.8 | CCn1ncc(CN(C)C(=O)c2nc(-c3ccc(OCCN(C)C(=O)OC(C)(C)C)c(Cl)c3)nc3ccc(Cl)cc23)c1C [Compound 151] | 3.2 | –
3.6 | 8.9 | 3.6 | CCn1ncc(CN(C)C(=O)c2nc(-c3ccc(OCCNC)c(Cl)c3)nc3ccc(OC)cc23)c1C [Compound 152] | 1.6 | –
35 | 9.3 | 26 | CCn1ncc(CN(C)C(=O)c2nc(-c3ccnc(NC)c3)nc3ccc(Cl)cc23)c1C [Compound 155] | 5 | –
34 | 9.6 | 13 | CCn1ncc(CN(C)C(=O)c2nc(-c3ccc(C(=O)NC)cc3)nc3ccc(Cl)cc23)c1C [Compound 156] | 9.6 | –
20 | 10 | 7.7 | CCn1ncc(CN(C)C(=O)c2nc(N3CCc4[nH]c(C)nc4C3)nc3ccc(Cl)cc23)c1C [Compound 159] | 10 | –
32 | 11 | 20 | CCn1ncc(CN(C)C(=O)c2nc(-c3cc(C(=O)NC4CCN(C)CC4)nn3C)nc3ccc(Cl)cc23)c1C [Compound 160] | 5.1 | –
17 | 11 | 6.2 | CCn1ncc(CN(C)C(=O)c2nc(N3CCc4cn[nH]c4C3)nc3ccc(Cl)cc23)c1C [Compound 161] | 11 | –
62 | 12 | 35 | CCn1ncc(CN(C)C(=O)c2nc(-c3cc(C(=O)NCCCN4CCCC4)n(Cc4ccc(OC)cc4)n3)nc3ccc(Cl)cc23)c1C [Compound 163] | 2.7 | –
52 | 13 | 30 | CCn1ncc(CN(C)C(=O)c2nc(-c3ccc(C(=O)NC)c(C)c3)nc3ccc(Cl)cc23)c1C [Compound 164] | 9.8 | –
28 | 13 | 15 | CCn1ncc(CN(C)C(=O)c2cc(-c3ccc(OCCCO)cn3)nc3ccc(Cl)cc23)c1C [Compound 166] | 11 | –
18 | 13 | 8 | CCn1ncc(CN(C)C(=O)c2nc(N3CCc4[nH]cnc4C3)nc3ccc(Cl)cc23)c1C [Compound 167] | 11 | –
8.4 | 13 | 15 | CCn1ncc(CN(C)C(=O)c2nc(-c3cc(C(=O)NCCN4CCCC4)on3)nc3ccc(Cl)cc23)c1C [Compound 169] | 6.7 | –
58 | 14 | 13 | CCn1ncc(CN(C)C(=O)c2nc(-c3cn(C)cn3)nc3ccc(Cl)cc23)c1C [Compound 170] | 6.9 | –
8.5 | 14 | 3.6 | CCn1ncc(CN(C)C(=O)c2nc(-c3ccc(-c4ccn[nH]4)cc3)nc3ccc(Cl)cc23)c1C [Compound 171] | 7.8 | –
17 | 14 | 7.8 | CCn1ncc(CN(C)C(=O)c2nc(-c3ccc(OCCO)cn3)nc3ccc(Cl)cc23)c1C [Compound 173] | 11 | –
86 | 16 | 44 | CCn1ncc(CN(C)C(=O)c2nc(-c3cc(CN(C)Cc4ccc(OC)cc4)nn3C)nc3ccc(Cl)cc23)c1C [Compound 176] | 8.2 | –

SMILES | IC50 (CREBBP (1084-1701)) [µM] | IC50 [1] [µM] | IC50 (EP300 (P300(1048-1664))) [µM] | IC50 (647V cells; Homo sapiens, 647-V) [µM] | IC50 (647V cells) [µM]
CCn1ncc(CN(C)C(=O)c2cc(-c3csc(CNC)n3)nc3ccc(Cl)cc23)c1C [Compound 138] | 12 | 5.9 | 5.2 | – | 8.3
CCn1ncc(CN(C)C(=O)c2nc(-c3ccc(CN4CCNCC4)c(OC)c3)nc3ccc(Cl)cc23)c1C [Compound 139] | 6.8 | 5.9 | 7.4 | – | 7.5
CCn1ncc(CN(C)C(=O)c2nc(-c3ccc(OCCNC(=O)OC(C)(C)C)c(C)c3)nc3ccc(Cl)cc23)c1C [Compound 143] | 0.13 | 6.4 | 8.1 | – | 4.3
CCn1ncc(CN(C)C(=O)c2nc(-c3cccc(-c4ccn[nH]4)c3)nc3ccc(Cl)cc23)c1C [Compound 145] | 2.8 | 6.5 | 1.9 | – | 9.9
CCn1ncc(CN(C)C(=O)c2nc(-c3ccc(OCCCNC(=O)OC(C)(C)C)c(C)c3)nc3ccc(Cl)cc23)c1C [Compound 147] | 0.47 | 7 | 7.9 | – | 3.1
CCn1ncc(CN(C)C(=O)c2nc(-c3ccc(NC4CCNCC4)cn3)nc3ccc(Cl)cc23)c1C [Compound 153] | 0.39 | 9 | 0.35 | – | 4.9
CCCOc1ccc(-c2nc(C(=O)N(C)Cc3cnn(CC)c3C)c3cc(Cl)ccc3n2)cc1Cl [Compound 157] | 3.2 | 9.6 | 2.8 | – | 5.6
CCn1ncc(CN(C)C(=O)c2cc(-n3cc4c(n3)CNCC4)nc3ccc(Cl)cc23)c1C [Compound 168] | 18 | 13 | 5.8 | – | 18
